# Measured values as given in patent publication EP0614464B1, “PEPTIDES AND ANTIBODIES FOR TREATMENT OF RHEUMATOID ARTHRITIS” (PEPTIDE THERAPEUTICS LIMITED, priority 1991, dated 1993).
# Ends that are not written are not given here. Peptide text beside a SMILES is read from it.
# Experiments:
# [1] = test system: mouse macrophage cell line (PU 518); assay: Macrophage inhibition assay: IgA-α1AT complex-stimulated release of lysosomal enzymes; format: cell-based
# Experimental: A mouse macrophage cell line (PU 518) was stimulated to release lysosomal enzymes by the addition of purified human IgA-α1AT complex. The degree to which this release was then inhibited by the peptides or other drugs was investigated, with the degree of inhibition being indicative of activity; the concentration of peptide or other test drugs giving 50% inhibition being recorded. Briefly the method was as follows:
# 25µl of peptide or drug was double diluted in […] + 10% foetal calf serum (FCS) in a sterile tissue culture 96 well plate. 25µl of IgA-α1AT complex in RPMI 1640 +10% FCS at about 0.2mg/ml was then added to all wells. 50µl of cells at a concentration of 2 x 10^6 cells/ml in RPMI 1640 + 10% FCS was then added to each well.
# Control wells of cells alone and cells + IgA-α1AT complex were also prepared. The plate was then gently mixed and incubated overnight (16hr) at 37°C in a 4% CO2 atmosphere. Plates were then centrifuged at 1200 rpm for 10 minutes in a bench top centrifuge.
# 40µl of supernatant was then taken from each well and added to a 96 well polystyrene assay plate, to which was added 40µl of 160mM acetate buffer (pH 4.3) containing 2mM phenolphthalein-β-D-glucuronic acid. To obtain a standard curve, dilutions of phenolphthalein in acetate buffer from 100-5µg/ml were also added to separate wells in the assay plate.
# The plates were then incubated at 37°C for 4 hours before 150µl of 0.2M glycine/NaOH buffer (pH 10.6) containing 0.2M NaCl was added to stop the reaction.
# Plates were then shaken for 3 minutes before the optical density at 570nm was read on a plate reader, and the amount of β-D-glucuronic acid released from the cells calculated. The concentration of peptide or drug giving 50% inhibition of release was then noted.
# The results for the macrophage inhibition assays are expressed as the concentration needed to prevent 50% release of β-glucoromidase.
# [2] = test system: alternative complement (C3) pathway; assay: Inhibition of C3-activation: preventing IgA-α1AT complex from activating the alternative complement pathway, rabbit erythrocyte haemolysis read-out; format: biochemical, human; settings: Table 5; minimum concentration needed to prevent C3 activation
# [3] = test system: IgA-α1AT complex; assay: HPLC analysis of in vitro dissociation of purified IgA-α1AT complex; format: biochemical, human; settings: for HPLC minimum: Table 5, minimum concentration giving complex : free IgA ratio at 20% (base-line 14%), >500µM = no complex dissociation at highest concentration tested; for activity: comment in words on Tables 3-5, assay not given, fits the HPLC values
# Experimental: The ability of the peptides of the invention to dissociate purified IgA-α1AT complex in vitro was tested as described below. The anti-rheumatic drug D-penicillamine and other synthetic peptides were used as controls. […] The sample was monitored at wavelength 206nm at a flow rate of 1ml/minute with phosphate buffer (0.1M) pH 7.1. […] They represent the ability of the peptides to dissociate the IgA-α1AT complex in vitro. In these experiments, the base-lines level comprises a complex : free IgA ratio of 14% . The minimum concentration of peptide taken to produce a positive dissociation effect is that which results in a complex: free IgA ratio at 20%. In the results tables, all the peptide values are expressed in µMoles.
# [4] = test system: alternative complement (C3) pathway; assay: Inhibition of C3-activation: preventing IgA-α1AT complex from activating the alternative complement pathway, rabbit erythrocyte haemolysis read-out; format: biochemical, human
# Experimental: Various peptides were tested for their ability to prevent the IgA-α1AT complex from activating the alternative complement (C3) pathway.
# The method of measuring the capacity to activate the alternative complement pathway by the non-immune IgA-α1AT complex and the subsequent inhibition of this activation by anti-rheumatic peptides is described below.
# This method was based on the method described by Riches and Stanworth, Immunology Letters, 1980, 1, 363,366, with modification to miniaturise it thus allowing the assay to be carried out on microtitre plates.
# The initial observation by Platts-Mills and Ishizaka (J Immunol. (1974) 113, 348,358) that low dilutions of fresh normal human serum, from which calcium had been removed by chelation with 10mM EGTA to block the classical complement pathway, caused greater than 90% haemolysis of unsensitised rabbit erythrocytes when incubated at 37°C was employed in this assay.
# The non-immune complex IgA-α1AT had been shown in the past to be the only known soluble complex to activate the alternative pathway complement and […] of the rabbit erythrocytes. This inhibition required biologically active complex.
# The buffers solutions required in this assay were (a) Total lysis buffer (1% Triton100 in ultra pure water), (b) Alternative pathway complement fixation diluent (APCFD) which was:- • 83 volumes CFD, DH 7.2 (1 oxoid tablet: 100ml UPW) • 10 volumes 0.1M EGTA pH 7.2 • 7 volumes MgCl2 pH 7.2
# Blood was obtained by venipuncture from a healthy human individual. The blood was allowed to clot for 1 hour at room temperature and then stored overnight at 4°C. The serum was removed and stored at -70°C in lml aliquots. For use, the serum was defrosted and 100µl of 0.1m EGTA pH 7.2 and 70µl O.lm MgCl2 pH 7.2 was added.
# Rabbit red blood cells (RBC) were obtained by venipuncture of a healthy rabbit and collected into 0.1M citrate buffer pH 6.2. The RBC were washed 3 times in citrate buffer and the cells were stored in this buffer which was changed every week. It was possible to store cells in this way for 3 weeks. Peptides
# The peptides were synthesised as described in Example 1 and made up in UPW to lmM. They were kept frozen at -70°C prior to use.
# This was prepared as previously described in Example 2. It was kept frozen in small aliquots prior to use.
# Using a round bottomed welled flexible microtitre plate 100µl neat serum (with added EGTA and MgCl2) was added to the first wells in duplicate. This was double diluted out, with APCFD to give a volume of 50µl well. 8 test wells (+ duplicates) were sufficient. 8 wells were prepared as a positive control - (100µl 1% Triton/UPW). 8 wells were prepared as a negative control - (100µl APCFD (Blank)).
# 50µl of APCFD was added to the test wells and 50µl of 1% rabbit RBC was added to all wells. The plate was then incubated at 37°C for 30 minutes and then centrifuged for 10 minutes at 2000 rpm.
# 75µl of the supernatant was carefully removed and plated onto a flat bottom welled microtitre plate. The plates were then read at 410nm interference, 690nm reference. The zero or blank value was calculated as the mean value of negative control wells and using the mean of the positive control wells, the percentage lysis for serum dilutions was calculated. In future assays the serum dilution in which lysis was approx. 80% of Rb RBC was used. This was usually in the range 1:4 - 1:6 dilution (ie. lml serum : 4ml APCFD - 6ml APCFD).
# A 1:1 dilution of IgA-α1AT complex was made with twice concentrated APCFD. 100µl of this 1:1 dilution of complex was added to the first wells in duplicate. This was double diluted out with APCFD to give 50 µl per well. 50µl of the predetermined dilution of serum (see (i) above) was added to each well. Positive and negative control wells as described in (a) above and wells containing serum alone were used as controls. The plates were incubated at 37°C for 30 minutes and then centrifuged at 2000 rpm for 1 minute. […]
# [5] = Table 3, minimum concentration of peptide needed to prevent C3 activation
# [6] = Table 3, minimum peptide concentration giving complex : free IgA ratio at 20% (base-line 14%), 90 minutes at 37°C
# [7] = Table 4, minimum concentration of peptide needed to prevent C3 activation
# [8] = Table 4, minimum peptide concentration giving complex : free IgA ratio at 20% (base-line 14%), 90 minutes at 37°C
# [9] = Table 5, minimum concentration needed to prevent C3 activation
# [10] = Table 3; concentration needed to prevent 50% release of β-glucoromidase; 16hr incubation
molecule,measurement,setting,value
N[C@@H](CS)C(=O)O [Cysteine],IC50,"[1]; Table 5, head prints no unit, b70 says all values of the results tables are in µMoles, concentration needed to prevent 50% release of β-glucoromidase",500 µM
same,C' minimum,[2],16 µM
same,HPLC minimum,[3]; 90 minutes at 37°C,250 µM
N[C@@H](CCC(=O)N[C@@H](CS)C(=O)NCC(=O)O)C(=O)O [Glutathione],C' minimum,[2],31 µM
same,HPLC minimum,[3]; 90 minutes at 37°C,500 µM
same,activity,[3],relatively inactive
CC(=O)N[C@@H](CS)C(=O)O [N-acetyl Cysteine],C' minimum,[2],4 µM
same,HPLC minimum,[3]; 90 minutes at 37°C,500 µM
same,activity,[3],relatively inactive
"NCCCC[C@H](NC(=O)[C@H](CCCCN)NC(=O)[C@@H](N)CS)C(N)=O [Peptide 114, CKKnh2] (H-Cys-Lys-Lys-NH2)",C' minimum,"[4]; Table 2, minimum concentration of peptide needed to prevent C3 activation",>1250 µM
same,HPLC% minimum,"[3]; Table 2, minimum peptide concentration giving complex : free IgA ratio at 20% (base-line 14%), 90 minutes at 37°C",125 µM
"NCCCC[C@H](NC(=O)[C@@H](N)CS)C(N)=O [Peptide 115, CKnh2, reference compound] (H-Cys-Lys-NH2)",HPLC minimum,[3]; 90 minutes at 37°C,500 µM
same,activity,[3],substantially less active
"NCCCC[C@H](NC(=O)[C@H](CCCCN)NC(=O)[C@H](CS)NC(=O)[C@@H](N)Cc1c[nH]cn1)C(N)=O [Peptide 132, HCKKnh2] (H-HCKK-NH2)",IC50,[1]; Table 1; concentration needed to prevent 50% release of β-glucoromidase; 16hr incubation,60 µM
same,C',"[4]; Table 1, minimum concentration of peptide needed to prevent C3 activation",16 µM
same,HPLC %,"[3]; Table 1, minimum peptide concentration giving complex : free IgA ratio at 20% (base-line 14%), 90 minutes at 37°C",10 µM
"C[C@@H](N)C(=O)N[C@@H](Cc1c[nH]cn1)C(=O)N[C@@H](CS)C(=O)N[C@@H](CCCCN)C(=O)N[C@@H](CCCCN)C(N)=O [Peptide 205, dAHCKKnh2] (HELM PEPTIDE1{[dA].H.C.K.K.[am]}$$$$V2.0)",C',[4]; [5],1.95 µM
same,HPLC,[3]; [6],10 µM
"C[C@@H](NC(=O)[C@H](CCCCN)NC(=O)[C@H](CCCCN)NC(=O)[C@H](CS)NC(=O)[C@@H](N)Cc1c[nH]cn1)C(N)=O [Peptide 206, HCKKdAnh2] (HELM PEPTIDE1{H.C.K.K.[dA].[am]}$$$$V2.0)",C',[4]; [7],31.3 µM
same,HPLC,[3]; [8],50 µM
"C[C@@H](N)C(=O)N[C@@H](Cc1c[nH]cn1)C(=O)N[C@@H](CS)C(=O)N[C@@H](CCCCN)C(=O)N[C@@H](CCCCN)C(=O)N[C@H](C)C(N)=O [Peptide 210, dAHCKKdAnh2, reference compound] (HELM PEPTIDE1{[dA].H.C.K.K.[dA].[am]}$$$$V2.0)",C' minimum,[4]; [9],3.9 µM
same,HPLC minimum,[3]; 90 minutes at 37°C,10 µM
"DGGHCKK-NH2 [Peptide 118, DGGHCKKnh2]",HPLC,[3]; [6],50 µM
"DGHCKK-NH2 [Peptide 119, DGHCKKnh2]",HPLC,[3]; [6],10 µM
"DHCKK-NH2 [Peptide 113, DHCKKnh2]",IC50,[1]; [10],70 µM
same,C',[4]; [5],78 µM
same,HPLC,[3]; [6],10 µM
"EGHCKK-NH2 [Peptide 155, EGHCKKnh2]",IC50,[1]; [10],60 µM
same,C',[4]; [5],<2 µM
same,HPLC,[3]; [6],5 µM
"EHCKK-NH2 [Peptide 154, EHCKKnh2]",C',[4]; [5],<2 µM
same,HPLC,[3]; [6],5 µM
"HCCGKnh2 [Peptide 147, reference compound]",IC50,"[1]; Table 5; head prints no unit, b70 says all values of the results tables are in µMoles; concentration needed to prevent 50% release of β-glucoromidase",250 µM
same,C' minimum,[4]; [9],32 µM
same,HPLC minimum,[3]; 90 minutes at 37°C,10 µM
"HCKKD-NH2 [Peptide 120, HCKKDnh2]",IC50,[1]; Table 4; concentration needed to prevent 50% release of β-glucoromidase; 16hr incubation,25 µM
same,C',[4]; [7],62 µM
same,HPLC,[3]; [8],50 µM
